Drawing on ChEMBL document CHEMBL1156511, “Suppressor mutations in the transmembrane segments of P-glycoprotein promote maturation of processing mutants and disrupt a subset of drug-binding sites” (J Biol Chem, 2007), this text covers IC50, Activity and EC50 for 5 molecules.

Structures are written as SMILES. Calls of active or inactive are those of the source. The calls are words filed in the database; no cut-off is given here.

Format in all cases: cell-based
The target of data set [1] is ATP-dependent translocase ABCB1 (Homo sapiens, UniProt P08183, F728C/I306R/L339C). Description: Inhibition of cross-linking of human Pgp TM5 I306R/TM6 L339C/TM7 F728C mutant expressed in HEK293 cells assessed as drug level causing 50% inhibition of cross linking by immunoblot. To be noted: read-out: Activity. On the technique in general: Immunoblotting shows a protein as a band on a membrane.

In data set [2] the target is ATP-dependent translocase ABCB1 (Homo sapiens, UniProt P08183, F728C/L339C/T199R). Description: Inhibition of cross-linking of human Pgp TM3 T199R/TM6 L339C/TM7 F728C mutant expressed in HEK293 cells assessed as drug level causing 50% inhibition of cross linking by immunoblot. Conditions: read-out: Activity.
In data set [3] the target is ATP-dependent translocase ABCB1 (Homo sapiens, UniProt P08183, F343R/F728C/L339C). Description: Inhibition of cross-linking of human Pgp TM6 F343R/TM6 L339C/TM7 F728C mutant expressed in HEK293 cells assessed as drug level causing 50% inhibition of cross linking by immunoblot. To be noted: read-out: Activity.
Data set [4] deals with ATP-dependent translocase ABCB1 (Homo sapiens, UniProt P08183, Q195C). Description: Increase in ATPase activity of human histidine-tagged Pgp TM3 Q195C mutant expressed in HEK293 cells at 2 mM relative to control. Conditions: hek293, 2000 µM.
Data set [5] has as its target T1, ATP-dependent translocase ABCB1 (Homo sapiens, UniProt P08183, C137A/C431A/C717A/C956A/C1074A/C1125A/C1227A). Description: Activation of ATPase activity of human histidine-tagged Cys-less Pgp mutant expressed in HEK293 cells assessed as half maximal stimulation at 110 uM. To be noted: hek293, 110 µM.
The target of data set [6] is ATP-dependent translocase ABCB1 (Homo sapiens, UniProt P08183, I205C). Description: Increase in ATPase activity of human histidine-tagged Pgp TM3 I205C mutant expressed in HEK293 cells at 2 mM relative to control. Conditions: hek293, 2000 µM.
The target of data set [7] is ATP-dependent translocase ABCB1 (Homo sapiens, UniProt P08183, T209C). Description: Increase in ATPase activity of human histidine-tagged Pgp TM3 T209C mutant expressed in HEK293 cells at 2 mM relative to control. Conditions: hek293, 2000 µM.
Data set [8] has as its target ATP-dependent translocase ABCB1 (Homo sapiens, UniProt P08183, G203C). Description: Increase in ATPase activity of human histidine-tagged Pgp TM3 G203C mutant expressed in HEK293 cells at 2 mM relative to control. Conditions: hek293, 2000 µM.
Data set [9] concerns the target ATP-dependent translocase ABCB1 (Homo sapiens, UniProt P08183, M192C). Description: Increase in ATPase activity of human histidine-tagged Pgp TM3 M192C mutant expressed in HEK293 cells at 2 mM relative to control. To be noted: hek293, 2000 µM.
For data set [10], the target named is ATP-dependent translocase ABCB1 (Homo sapiens, UniProt P08183, F201C). Description: Increase in ATPase activity of human histidine-tagged Pgp TM3 F201C mutant expressed in HEK293 cells at 2 mM relative to control. To be noted: hek293, 2000 µM.
Data set [11] concerns the target ATP-dependent translocase ABCB1 (Homo sapiens, UniProt P08183, S196C). Description: Increase in ATPase activity of human histidine-tagged Pgp TM3 S196C mutant expressed in HEK293 cells at 2 mM relative to control. Conditions: hek293, 2000 µM.
In data set [12] the target is ATP-dependent translocase ABCB1 (Homo sapiens, UniProt P08183, T202C). Description: Increase in ATPase activity of human histidine-tagged Pgp TM3 T202C mutant expressed in HEK293 cells at 2 mM relative to control. Conditions: hek293, 2000 µM.
Data set [13] addresses ATP-dependent translocase ABCB1 (Homo sapiens, UniProt P08183, F204C). Description: Increase in ATPase activity of human histidine-tagged Pgp TM3 F204C mutant expressed in HEK293 cells at 2 mM relative to control. To be noted: hek293, 2000 µM.
The target in data set [14] is ATP-dependent translocase ABCB1 (Homo sapiens, UniProt P08183, G191C). Description: Increase in ATPase activity of human histidine-tagged Pgp TM3 G191C mutant expressed in HEK293 cells at 2 mM relative to control. To be noted: hek293, 2000 µM.
The target of data set [15] is T2, ATP-dependent translocase ABCB1 (Homo sapiens, UniProt P08183, T199C). Description: Increase in ATPase activity of human histidine-tagged Pgp TM3 mutant T199C expressed in HEK293 cells at 2 mM relative to control. Conditions: hek293, 2000 µM.
For data set [16], the target named is ATP-dependent translocase ABCB1 (Homo sapiens, UniProt P08183, F208C). Description: Increase in ATPase activity of human histidine-tagged Pgp TM3 F208C mutant expressed in HEK293 cells at 2 mM relative to control. Conditions: hek293, 2000 µM.
The target in data set [17] is ATP-dependent translocase ABCB1 (Homo sapiens, UniProt P08183, G207C). Description: Increase in ATPase activity of human histidine-tagged Pgp TM3 G207C mutant expressed in HEK293 cells at 2 mM relative to control. To be noted: hek293, 2000 µM.
The target in data set [18] is ATP-dependent translocase ABCB1 (Homo sapiens, UniProt P08183, M197C). Description: Increase in ATPase activity of human histidine-tagged Pgp TM3 M197C mutant expressed in HEK293 cells at 2 mM relative to control. Conditions: hek293, 2000 µM.
The target in data set [19] is T2, ATP-dependent translocase ABCB1. Description: Activation of ATPase activity of human histidine-tagged Pgp TM3 T199C mutant expressed in HEK293 cells assessed as drug level causing maximal activation.
In data set [20] the target is ATP-dependent translocase ABCB1 (Homo sapiens, UniProt P08183, A198C). Description: Increase in ATPase activity of human histidine-tagged Pgp TM3 A198C mutant expressed in HEK293 cells at 2 mM relative to control. To be noted: hek293, 2000 µM.
Data set [21] deals with ATP-dependent translocase ABCB1 (Homo sapiens, UniProt P08183, F193C). Description: Increase in ATPase activity of human histidine-tagged Pgp TM3 F193C mutant expressed in HEK293 cells at 2 mM relative to control. Conditions: hek293, 2000 µM.
Data set [22] has as its target ATP-dependent translocase ABCB1 (Homo sapiens, UniProt P08183, V206C). Description: Increase in ATPase activity of human histidine-tagged Pgp TM3 V206C mutant expressed in HEK293 cells at 2 mM relative to control. Conditions: hek293, 2000 µM.
Data set [23] deals with ATP-dependent translocase ABCB1 (Homo sapiens, UniProt P08183, F194C). Description: Increase in ATPase activity of human histidine-tagged Pgp TM3 F194C mutant expressed in HEK293 cells at 2 mM relative to control. To be noted: hek293, 2000 µM.
Data set [24] concerns the target T2, ATP-dependent translocase ABCB1. Description: Activation of ATPase activity of human histidine-tagged Pgp TM3 T199C mutant expressed in HEK293 cells assessed as drug level causing half-maximal activation. To be noted: read-out: Activity.
Data set [25] has as its target T1, ATP-dependent translocase ABCB1. Description: Increase in ATPase activity of human histidine-tagged Pgp Cys-less mutant expressed in HEK293 cells at 2 mM relative to control. To be noted: hek293, 2000 µM.
The target in data set [26] is ATP-dependent translocase ABCB1 (Homo sapiens, UniProt P08183, F200C). Description: Increase in ATPase activity of human histidine-tagged Pgp TM3 F200C mutant expressed in HEK293 cells at 2 mM relative to control. To be noted: hek293, 2000 µM.
For data set [27], the target named is ATP-dependent translocase ABCB1 (Homo sapiens, UniProt P08183, I190C). Description: Increase in ATPase activity of human histidine-tagged Pgp TM3 I190C mutant expressed in HEK293 cells at 2 mM relative to control. To be noted: hek293, 2000 µM.
Data set [28] concerns HEK293. Description: Inhibition of cross-linking of human Pgp TM6 L339C/TM7 F728C mutant expressed in HEK293 cells assessed as drug level causing 50% inhibition of cross linking by immunoblot.
Data set [29] relates to HEK293. Description: Inhibition of cross-linking of human Pgp TM1 L65R/TM6 L339C/TM7 F728 mutant expressed in HEK293 cells assessed as drug level causing 50% inhibition of cross linking by immunoblot.
Data set [30] has as its system HEK293. Description: Activation of ATPase activity of human Pgp TM7 Cys728 mutant expressed in HEK293 cells at 3 mM relative to control.

T2 sequence (P08183 whole entry T199C): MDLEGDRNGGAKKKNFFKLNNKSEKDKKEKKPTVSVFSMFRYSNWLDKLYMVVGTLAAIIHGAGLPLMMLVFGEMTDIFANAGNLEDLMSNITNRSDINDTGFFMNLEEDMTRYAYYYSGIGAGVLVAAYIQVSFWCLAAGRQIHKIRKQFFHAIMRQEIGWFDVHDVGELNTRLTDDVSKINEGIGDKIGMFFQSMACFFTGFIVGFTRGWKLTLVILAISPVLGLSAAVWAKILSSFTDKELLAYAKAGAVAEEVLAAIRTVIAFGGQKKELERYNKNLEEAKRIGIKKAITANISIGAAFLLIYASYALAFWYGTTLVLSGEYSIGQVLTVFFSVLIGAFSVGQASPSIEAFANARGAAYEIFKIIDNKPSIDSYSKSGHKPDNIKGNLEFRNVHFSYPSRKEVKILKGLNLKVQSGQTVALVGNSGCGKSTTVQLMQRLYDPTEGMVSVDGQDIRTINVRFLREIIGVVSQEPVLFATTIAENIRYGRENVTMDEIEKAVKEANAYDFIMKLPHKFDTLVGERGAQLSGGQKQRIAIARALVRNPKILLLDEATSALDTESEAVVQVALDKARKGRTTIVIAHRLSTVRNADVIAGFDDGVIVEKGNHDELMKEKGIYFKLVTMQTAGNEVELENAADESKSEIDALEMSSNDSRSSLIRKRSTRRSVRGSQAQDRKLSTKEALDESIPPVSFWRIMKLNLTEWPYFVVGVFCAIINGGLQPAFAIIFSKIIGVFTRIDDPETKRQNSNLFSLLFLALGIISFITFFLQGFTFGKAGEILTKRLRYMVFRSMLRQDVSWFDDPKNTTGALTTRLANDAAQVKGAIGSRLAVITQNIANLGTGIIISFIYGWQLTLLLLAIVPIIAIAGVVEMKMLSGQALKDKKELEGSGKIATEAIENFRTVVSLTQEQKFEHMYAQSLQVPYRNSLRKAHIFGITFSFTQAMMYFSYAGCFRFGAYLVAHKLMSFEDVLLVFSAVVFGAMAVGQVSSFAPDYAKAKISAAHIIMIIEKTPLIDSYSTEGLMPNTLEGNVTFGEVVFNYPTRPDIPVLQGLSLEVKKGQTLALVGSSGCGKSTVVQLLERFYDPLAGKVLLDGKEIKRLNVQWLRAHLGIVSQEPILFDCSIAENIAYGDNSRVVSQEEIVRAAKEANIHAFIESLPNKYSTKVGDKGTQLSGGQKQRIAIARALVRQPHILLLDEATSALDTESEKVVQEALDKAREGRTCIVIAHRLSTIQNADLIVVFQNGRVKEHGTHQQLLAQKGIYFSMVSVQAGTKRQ
ATP-dependent translocase ABCB1 (Homo sapiens, UniProt P08183, Q195C), sequence (P08183 whole entry Q195C): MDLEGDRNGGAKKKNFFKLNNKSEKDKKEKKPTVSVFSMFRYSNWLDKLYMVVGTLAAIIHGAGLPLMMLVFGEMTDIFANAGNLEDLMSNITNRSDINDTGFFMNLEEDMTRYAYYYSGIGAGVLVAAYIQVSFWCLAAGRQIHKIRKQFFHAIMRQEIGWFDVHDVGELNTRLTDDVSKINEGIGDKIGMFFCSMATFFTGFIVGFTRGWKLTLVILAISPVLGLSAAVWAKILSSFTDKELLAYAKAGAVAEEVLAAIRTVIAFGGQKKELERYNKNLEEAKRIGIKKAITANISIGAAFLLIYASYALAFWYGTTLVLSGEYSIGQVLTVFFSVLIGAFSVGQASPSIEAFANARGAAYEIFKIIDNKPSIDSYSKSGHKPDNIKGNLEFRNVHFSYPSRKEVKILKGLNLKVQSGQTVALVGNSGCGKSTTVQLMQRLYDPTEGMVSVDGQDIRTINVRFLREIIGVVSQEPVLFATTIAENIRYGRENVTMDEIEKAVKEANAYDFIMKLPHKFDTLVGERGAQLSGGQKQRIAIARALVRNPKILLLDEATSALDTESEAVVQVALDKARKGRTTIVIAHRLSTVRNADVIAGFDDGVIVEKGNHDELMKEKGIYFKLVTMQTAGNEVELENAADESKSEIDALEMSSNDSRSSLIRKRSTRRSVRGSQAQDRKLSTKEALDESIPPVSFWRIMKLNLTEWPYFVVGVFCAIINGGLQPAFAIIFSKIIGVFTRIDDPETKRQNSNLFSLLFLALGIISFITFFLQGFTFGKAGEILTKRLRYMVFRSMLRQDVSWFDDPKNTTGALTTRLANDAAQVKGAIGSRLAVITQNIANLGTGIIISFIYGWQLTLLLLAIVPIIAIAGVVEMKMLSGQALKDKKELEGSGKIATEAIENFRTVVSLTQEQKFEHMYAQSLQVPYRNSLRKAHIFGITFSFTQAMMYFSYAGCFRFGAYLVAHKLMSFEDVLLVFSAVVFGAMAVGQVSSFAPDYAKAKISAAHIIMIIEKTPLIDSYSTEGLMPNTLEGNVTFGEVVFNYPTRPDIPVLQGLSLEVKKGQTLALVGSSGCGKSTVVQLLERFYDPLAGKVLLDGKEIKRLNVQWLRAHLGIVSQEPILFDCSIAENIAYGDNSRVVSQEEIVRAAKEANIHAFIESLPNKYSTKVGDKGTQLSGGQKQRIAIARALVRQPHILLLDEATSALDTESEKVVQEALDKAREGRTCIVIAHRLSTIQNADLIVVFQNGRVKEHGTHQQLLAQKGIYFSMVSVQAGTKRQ
T1 sequence (P08183 whole entry C137A/C431A/C717A/C956A/C1074A/C1125A/C1227A): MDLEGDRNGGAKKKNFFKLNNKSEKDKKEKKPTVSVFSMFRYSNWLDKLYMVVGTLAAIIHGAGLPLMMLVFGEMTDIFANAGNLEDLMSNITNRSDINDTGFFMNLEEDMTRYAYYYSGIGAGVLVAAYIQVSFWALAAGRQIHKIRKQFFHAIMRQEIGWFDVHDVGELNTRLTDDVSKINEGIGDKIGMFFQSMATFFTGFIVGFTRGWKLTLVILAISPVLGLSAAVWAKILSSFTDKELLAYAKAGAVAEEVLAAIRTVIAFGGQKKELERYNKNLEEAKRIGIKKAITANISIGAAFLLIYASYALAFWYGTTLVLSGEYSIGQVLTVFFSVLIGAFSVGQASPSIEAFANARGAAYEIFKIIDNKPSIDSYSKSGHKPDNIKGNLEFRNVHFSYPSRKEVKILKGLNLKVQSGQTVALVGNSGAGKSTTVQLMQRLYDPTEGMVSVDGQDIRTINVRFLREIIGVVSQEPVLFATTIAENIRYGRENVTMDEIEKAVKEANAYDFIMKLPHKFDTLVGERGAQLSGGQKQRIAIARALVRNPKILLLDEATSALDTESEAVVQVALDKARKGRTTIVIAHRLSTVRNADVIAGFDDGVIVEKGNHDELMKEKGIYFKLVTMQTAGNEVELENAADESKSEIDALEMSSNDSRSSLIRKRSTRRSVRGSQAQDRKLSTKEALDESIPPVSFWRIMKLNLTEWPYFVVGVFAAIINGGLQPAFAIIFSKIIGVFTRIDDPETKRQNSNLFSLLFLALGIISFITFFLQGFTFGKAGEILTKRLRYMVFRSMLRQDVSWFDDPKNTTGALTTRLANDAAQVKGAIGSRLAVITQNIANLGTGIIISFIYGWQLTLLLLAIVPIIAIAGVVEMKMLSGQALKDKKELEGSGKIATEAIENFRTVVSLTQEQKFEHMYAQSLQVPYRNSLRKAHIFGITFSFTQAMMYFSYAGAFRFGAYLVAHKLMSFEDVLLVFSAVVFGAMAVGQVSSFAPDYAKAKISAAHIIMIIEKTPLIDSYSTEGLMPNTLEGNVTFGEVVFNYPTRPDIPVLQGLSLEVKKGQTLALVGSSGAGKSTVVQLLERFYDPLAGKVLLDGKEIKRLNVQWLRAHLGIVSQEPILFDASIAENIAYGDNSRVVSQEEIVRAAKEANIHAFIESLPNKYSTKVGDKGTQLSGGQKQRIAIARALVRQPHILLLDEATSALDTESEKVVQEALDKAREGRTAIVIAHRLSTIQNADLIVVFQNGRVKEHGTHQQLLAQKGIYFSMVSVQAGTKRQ
ATP-dependent translocase ABCB1 (Homo sapiens, UniProt P08183, G207C), sequence (P08183 whole entry G207C): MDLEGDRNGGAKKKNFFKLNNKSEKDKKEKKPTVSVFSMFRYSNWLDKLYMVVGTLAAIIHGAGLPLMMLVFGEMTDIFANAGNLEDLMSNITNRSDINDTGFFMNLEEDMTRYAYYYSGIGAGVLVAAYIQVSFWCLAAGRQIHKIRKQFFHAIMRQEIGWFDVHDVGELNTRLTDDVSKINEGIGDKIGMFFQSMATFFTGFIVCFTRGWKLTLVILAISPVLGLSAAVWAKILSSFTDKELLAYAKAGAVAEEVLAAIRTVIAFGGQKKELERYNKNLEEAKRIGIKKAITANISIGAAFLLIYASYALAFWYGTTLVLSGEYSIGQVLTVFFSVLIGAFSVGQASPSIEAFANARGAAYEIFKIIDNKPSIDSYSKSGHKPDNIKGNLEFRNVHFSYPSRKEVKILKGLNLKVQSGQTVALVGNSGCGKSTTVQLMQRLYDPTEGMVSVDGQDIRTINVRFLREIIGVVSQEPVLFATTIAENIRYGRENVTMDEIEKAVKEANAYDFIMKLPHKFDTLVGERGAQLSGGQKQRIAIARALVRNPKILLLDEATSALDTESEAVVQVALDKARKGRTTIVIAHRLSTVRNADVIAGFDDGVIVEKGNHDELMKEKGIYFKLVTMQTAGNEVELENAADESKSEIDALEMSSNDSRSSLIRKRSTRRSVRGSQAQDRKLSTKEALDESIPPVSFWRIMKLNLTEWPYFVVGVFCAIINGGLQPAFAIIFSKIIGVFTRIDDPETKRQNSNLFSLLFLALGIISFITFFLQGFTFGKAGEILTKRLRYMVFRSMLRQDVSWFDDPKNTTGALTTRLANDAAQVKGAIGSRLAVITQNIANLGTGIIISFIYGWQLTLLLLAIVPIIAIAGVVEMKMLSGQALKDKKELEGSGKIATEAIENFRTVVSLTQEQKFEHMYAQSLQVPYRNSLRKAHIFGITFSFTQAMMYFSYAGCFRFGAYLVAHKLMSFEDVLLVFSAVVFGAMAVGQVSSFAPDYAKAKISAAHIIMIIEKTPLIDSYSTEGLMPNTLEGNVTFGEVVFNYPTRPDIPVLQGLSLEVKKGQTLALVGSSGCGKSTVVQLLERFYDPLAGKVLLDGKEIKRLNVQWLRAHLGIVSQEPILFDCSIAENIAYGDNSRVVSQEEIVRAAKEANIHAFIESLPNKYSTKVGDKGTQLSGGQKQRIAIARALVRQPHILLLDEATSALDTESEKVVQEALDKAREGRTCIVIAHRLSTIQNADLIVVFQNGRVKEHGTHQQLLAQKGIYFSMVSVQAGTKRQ

For the molecule `CCN(CC)c1ccc2c(-c3ccccc3C(=O)O)c3ccc(=[N+](CC)CC)cc-3oc2c1`, the IC50 in data set [1] was determined as 96 µM; in [2], 77 µM; in data set [3] it was 320 µM. The Activity in data set [4] turned out to be 6.4.
As to `CCN(CC)c1ccc2c(-c3ccc(S(=O)(=O)NCCSS(C)(=O)=O)cc3S(=O)(=O)O)c3ccc(=[N+](CC)CC)cc-3oc2c1.[Cl-]`, the Activity was 6.2 in data set [5]; below 1.5 in data set [6]; below 1.5 in data set [7]; below 1.5 in data set [8]; below 1.5 in data set [9]; below 1.5 in data set [10]. The Activity in data set [11] is recorded as below 1.5; in [12], below 1.5; in data set [13] it was below 1.5; in data set [14], below 1.5; in [4] it was below 1.5; in data set [15], below 6.7. For the same molecule, the Activity is recorded as below 1.5 in [16]; below 1.5 in data set [17]; below 1.5 in [18]; 2 mM in data set [19]; below 1.5 in data set [20]; below 1.5 in data set [21]. For the same molecule, the Activity in data set [22], in [23], in data set [25], in data set [26] and in data set [27] was below 1.5 in each case. Further, the EC50 in [24] amounted to 880 µM.
Regarding `CC[C@]1(O)C[C@@H]2CN(CCc3c([nH]c4ccccc34)[C@@](C(=O)OC)(c3cc4c(cc3OC)N(C)[C@H]3[C@@](O)(C(=O)OC)[C@H](OC(C)=O)[C@]5(CC)C=CCN6CC[C@]43[C@@H]65)C2)C1`, the values for the Activity with HEK293 [28] and with HEK293 [29] were 0.7 µM and 40 µM, respectively.
Consider `CCN(CC)c1ccc2c(-c3ccccc3C(C)=O)c3ccc(=[N+](CC)CC)cc-3oc2c1`, for which the Activity in the data set on HEK293 [28] is 88 µM; with HEK293 [29], 65 µM.
Take `COc1ccc(CC[N+](C)(CCCC(C#N)(c2ccc(OC)c(OC)c2)C(C)C)CCSS(C)(=O)=O)cc1OC` (stereo not drawn): in the data set with HEK293 [30], the result was inactive.
